Experimental findings from ChEMBL document CHEMBL4321817, “A Chemical Probe for Tudor Domain Protein Spindlin1 to Investigate Chromatin Function” (J Med Chem, 2019) are described below.

For data set [1], the target named is T1, Histone-lysine N-methyltransferase EHMT2 (Homo sapiens, UniProt Q96KQ7).
T1 sequence (Q96KQ7 whole entry): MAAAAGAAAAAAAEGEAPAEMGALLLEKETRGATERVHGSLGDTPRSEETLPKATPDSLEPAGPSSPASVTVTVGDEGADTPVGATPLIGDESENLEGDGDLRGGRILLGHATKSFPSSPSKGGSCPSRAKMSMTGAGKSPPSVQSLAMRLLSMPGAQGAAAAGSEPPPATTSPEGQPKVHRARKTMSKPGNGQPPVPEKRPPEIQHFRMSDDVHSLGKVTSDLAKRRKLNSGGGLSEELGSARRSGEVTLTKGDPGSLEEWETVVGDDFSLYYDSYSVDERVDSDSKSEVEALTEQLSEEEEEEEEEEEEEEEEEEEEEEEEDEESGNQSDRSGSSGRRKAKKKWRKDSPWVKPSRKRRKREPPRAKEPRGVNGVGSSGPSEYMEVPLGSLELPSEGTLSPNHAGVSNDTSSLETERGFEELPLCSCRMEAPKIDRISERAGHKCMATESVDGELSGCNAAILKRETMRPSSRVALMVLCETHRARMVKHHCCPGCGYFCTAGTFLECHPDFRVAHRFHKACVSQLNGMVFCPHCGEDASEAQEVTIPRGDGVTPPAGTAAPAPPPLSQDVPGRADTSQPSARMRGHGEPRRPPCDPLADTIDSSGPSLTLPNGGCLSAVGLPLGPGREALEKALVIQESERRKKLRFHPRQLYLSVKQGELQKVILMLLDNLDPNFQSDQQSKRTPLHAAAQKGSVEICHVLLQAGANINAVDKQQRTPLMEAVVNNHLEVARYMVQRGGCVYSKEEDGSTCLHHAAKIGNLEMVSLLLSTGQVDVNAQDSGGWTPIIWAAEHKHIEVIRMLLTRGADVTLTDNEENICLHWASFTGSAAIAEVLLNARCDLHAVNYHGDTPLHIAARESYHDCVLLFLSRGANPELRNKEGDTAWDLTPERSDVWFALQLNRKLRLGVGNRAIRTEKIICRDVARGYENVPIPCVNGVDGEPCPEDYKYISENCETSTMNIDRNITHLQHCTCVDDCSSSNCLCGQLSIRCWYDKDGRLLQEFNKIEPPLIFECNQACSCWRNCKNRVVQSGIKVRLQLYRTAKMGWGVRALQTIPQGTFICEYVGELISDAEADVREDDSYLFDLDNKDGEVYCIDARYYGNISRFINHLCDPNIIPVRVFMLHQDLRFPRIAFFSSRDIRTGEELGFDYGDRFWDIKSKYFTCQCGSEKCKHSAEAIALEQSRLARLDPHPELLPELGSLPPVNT
Nature of the data set: Inhibition of G9a (unknown origin) by scintillation proximity Assay.

In a further data set the target is Spindlin-1 (Homo sapiens, UniProt Q9Y657). Briefly: Displacement of trimethylated biotinylated histone H3 peptide from recombinant human His-tagged SPIN1 (26 to 262 residues) expressed in Escherichia coli BL21 (DE3) incubated for 30 mins followed by peptide addition and measured after 1 hr by Alphascreen method. On the technique in general: In Alpha technology, singlet oxygen from a donor bead excites a nearby acceptor bead.

Another data set relates to U2OS. Nature of the data set: Cytotoxicity against human U2OS cells assessed as reduction in cell viability at >3 uM incubated for 2 days by propidium iodide staining based assay. To be noted: 48 h.
Data set [2] can be described thus: Stability in human liver microsomes assessed as intrinsic clearance. Type of data set: ADME, Microsome. The conditions noted are these: read-out: CLH.
Data set [3] in a line: Stability in mouse liver microsomes assessed as half life. Type of data set: ADME, Microsome. (In general: Liver microsomes are vesicles of endoplasmic reticulum, rich in cytochrome P450 enzymes.)
Data set [4] in a line: Stability in moue liver microsomes assessed as intrinsic clearance. Type of data set: ADME, Microsome. The conditions noted are these: mouse, read-out: CLH.
Data set [5] is described as follows: Apparent permeability from basolateral side to apical side in human Caco2 cells. The format is ADME, cell-based. To be noted: Caco-2.
Data set [6] is described as follows: Solubility of compound at >100 uM. Type of data set: physicochemical.
The nature of data set [7]: Stability in human liver microsomes assessed as half life. The format is ADME, Microsome.
Data set [8] can be described thus: Apparent permeability from apical side to basolateral side in human Caco2 cells. The format is ADME, cell-based. To be noted: Caco-2. In general terms: Caco-2 monolayers are a common model of the intestinal barrier.

Each structure is given as a SMILES string.

Sequence of Spindlin-1 (Q9Y657 whole entry, the tested form may be a part): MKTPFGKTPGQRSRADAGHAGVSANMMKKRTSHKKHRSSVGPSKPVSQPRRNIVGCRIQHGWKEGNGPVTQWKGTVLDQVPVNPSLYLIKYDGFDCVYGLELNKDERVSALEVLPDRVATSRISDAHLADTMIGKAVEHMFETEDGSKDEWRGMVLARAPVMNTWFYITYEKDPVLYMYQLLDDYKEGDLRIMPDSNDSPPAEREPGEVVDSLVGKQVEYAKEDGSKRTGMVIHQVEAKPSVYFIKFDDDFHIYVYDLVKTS

The term IC50 denotes the concentration that inhibits the measured activity by half. Consider `COc1cc2c(cc1OCCCN1CCCC1)N=C(N)C21CCCC1`, for which the IC50 in data set [1] (read-out: IC50) came to 0.006 µM.
`COc1ccc2c(c1)CN(CCCOc1cc3c(cc1OCC1CC1)C1(CCCC1)C(N)=N3)C2`: the IC50 at Spindlin-1 was 0.34 µM.
Consider `NC1=Nc2cc(OCCCN3CCCC3)c(OCC3CC3)cc2C12CCCC2`, for which the IC50 in data set [1] (read-out: IC50) was 3.1 µM; at Spindlin-1, 1.12 µM.
Regarding `CCOc1cc2c(cc1OCCCN1CCCC1)N=C(N)C21CCCC1`, the IC50 in [1] (read-out: IC50) was found to be 0.12 µM.
As for `CC(C)Oc1cc2c(cc1OCCCN1CCCC1)N=C(N)C21CCCC1`, the IC50 in data set [1] (read-out: IC50) came to 0.9 µM; at Spindlin-1 it was 8.91 µM.
Turning to `NC1=Nc2cc(OCCCCN3Cc4ccccc4C3)c(OCC3CC3)cc2C12CCCC2`, the Activity result with U2OS is “Toxic”. Further, the IC50 entry was “Not Active” in data set [1] and 6.22 µM on Spindlin-1.
For `COc1cc2c(cc1OCCCN1Cc3cccc(OC)c3C1)N=C(N)C21CCCC1`, the IC50 at Spindlin-1 turned out to be 6.65 µM.
For `CC1(C)C(N)=Nc2cc(OCCCN3Cc4ccccc4C3)c(OCC3CC3)cc21`, the Activity result with U2OS is recorded as “Toxic”. Further, the IC50 result in data set [1] was “Not Active”.
Turning to `COc1ccc2c(c1)CN(CCCOc1cc3c(cc1OC)C1(CCCC1)C(N)=N3)C2`, the 50% inhibitory concentration (IC50) at Spindlin-1 came to 0.6 µM.
On to `NC1=Nc2cc(OCCCN3Cc4ccccc4C3)c(OCC3CC3)cc2C12CCCC2`, for which, in the data set on U2OS, the Activity entry is “Toxic”. The IC50 result in data set [1] is “Not Active”.
Regarding `COc1cc2c(cc1OCCCN1Cc3ccccc3C1)N=C(N)C21CCCC1`, the results for the IC50 (in data set [1] (read-out: IC50); at Spindlin-1) were 10 µM and 0.66 µM, respectively.
By half-life is commonly meant how long it takes for the measured level to halve. As a reminder, the Papp B→A is the apparent permeability from the basolateral to the apical side of a cell layer. What is called Papp A→B is the apparent permeability from the apical to the basolateral side of a cell layer. Take `CC1(C)C(N)=Nc2cc(OCCCN3Cc4ccc(OCCc5cn(CC(=O)N6CCC(CCN7CCCC7)CC6)nn5)cc4C3)c(OCC3CC3)cc21`: the microsomal CLint in data set [2] amounted to 20.3 µL/min/mg; in data set [4], 37.4 µL/min/mg. Also, the half-life was found to be 37.1 min in data set [3] and 68.4 min in data set [7]. The Activity entry in the data set on U2OS is “Non-Toxic”. In addition, the Papp B→A in [5] is 60.7 nm/s. Further, the solubility result in data set [6] is given as “Soluble”. For the same molecule, in data set [8], the Papp A→B was 65.9 nm/s.
With `CC1(C)C(N)=Nc2cc(OCCCCN3Cc4ccc(OCc5cn(CC(=O)N6CCC(CCN7CCCC7)CC6)nn5)cc4C3)c(OCC3CC3)cc21`, in the data set with U2OS, the Activity entry is “Non-Toxic”.
Consider `CC1(C)C(N)=Nc2cc(OCCCCN3Cc4ccccc4C3)c(OCC3CC3)cc21`, for which the Activity result in the data set with U2OS is recorded as “Toxic”. Also, the IC50 entry in data set [1] was “Not Active”; on Spindlin-1, 6.92 µM.
